Laboratory results as given in patent US20250354185A1, “BLUE PIGMENT AND BIOSYNTHESIS METHOD THEREOF” (VERTEXYN BIOWORKS CO., LTD., priority 2024, published 2025).

Assays:
Type in all cases: physicochemical
[1] = Ultraviolet-visible absorption spectrum of HPLC product peaks; conditions: HPLC peaks of experimental group 5 (8.8 min indigoidine, 9.9 min N-acetyl-indigoidine)
Method: Wavelength: 600 nm. Flow rate: 1.0 mL/min. Sample solvent: DMSO. Injection volume: 10 μL. Column temperature: 35° C. Running time: 18 min.
Experimental group 5:50 mL of a fermentation broth of the strain HG-N-Idg01 cultured according to the method in Example 2 was collected and centrifuged to produce a cell pellet. The cell pellet was resuspended with 10 mL of a catalytic solution (including 1 g/L of glutaminc, 1 g/L of N-acetylglutamine, and 50 mM of a phosphate buffer), and a reaction was allowed at 25° C. and 220 rpm for 6 h. 100 μL of a sample was collected and tested by HPLC.
FIG. 2A and FIG. 2B show the wavelengths corresponding to the maximum absorption peaks of the experimental group 5.

[2] = Comparison of colors of solutions in water (ddH2O); conditions: 1 mg dissolved with 10 mL of ddH2O; visual observation
Method: 1 mg of an indigoidine standard was weighed and dissolved with 10 mL of ddH2O to produce a solution of indigoidine in ddH2O. 1 mg of N-acetyl-indigoidine purified in Example 4 was weighed and dissolved with 10 mL of ddH2O to produce a solution of N-acetyl-indigoidine in ddH2O. A color difference between the solution of indigoidine in ddH2O and the solution of N-acetyl-indigoidine in ddH2O was observed, and results were shown in FIG. 17A and FIG. 17B. […] It can be seen that N-acetyl-indigoidine has a more authentic color than indigoidine.

[3] = Comparison of colors of solutions in DMSO; conditions: 1 mg dissolved with 10 mL of DMSO; visual observation
Method: 1 mg of an indigoidine standard was weighed and dissolved with 10 mL of DMSO to produce a solution of indigoidine in DMSO. 1 mg of N-acetyl-indigoidine purified in Example 4 was weighed and dissolved with 10 mL of DMSO to produce a solution of N-acetyl-indigoidine in DMSO. A color difference between the solution of indigoidine in DMSO and the solution of N-acetyl-indigoidine in DMSO was observed, and results were shown in FIG. 16A and FIG. 16B. […] The solution of N-acetyl-indigoidine in DMSO has a more vibrant and brighter color than the solution of indigoidine in DMSO.

Compound	wavelength corresponding to the maximum absorption peak [1]	color of the solution in ddH2O [2]	color of the solution in DMSO [3]
Indigoidine	600 nm	purple-blue	blue
CC(=O)NC1=C/C(=C2/C=C(N)C(=O)NC2=O)C(=O)NC1=O [N-acetyl-indigoidine]	584 nm	blue	bright-blue
